Columns and labels:
[1] = Clearance in rat liver microsomes at 0.5 uM preincubated for 5 mins followed by NADPH addition measured after 30 mins by MSMS analysis; format: ADME, microsome; conditions: read-out: CLH
[2] = molecular target: cAMP and cAMP-inhibited cGMP 3',5'-cyclic phosphodiesterase 10A (Homo sapiens, UniProt Q9Y233); experiment: Inhibition of recombinant PDE10A (unknown origin) using cAMP/cGMP as substrate incubated for 60 mins by HTRF assay
[3] = Clearance in human liver microsomes at 0.5 uM preincubated for 5 mins followed by NADPH addition measured after 30 mins by MSMS analysis; format: ADME, microsome; conditions: read-out: CLH

Chain of cAMP and cAMP-inhibited cGMP 3',5'-cyclic phosphodiesterase 10A (Q9Y233 whole entry): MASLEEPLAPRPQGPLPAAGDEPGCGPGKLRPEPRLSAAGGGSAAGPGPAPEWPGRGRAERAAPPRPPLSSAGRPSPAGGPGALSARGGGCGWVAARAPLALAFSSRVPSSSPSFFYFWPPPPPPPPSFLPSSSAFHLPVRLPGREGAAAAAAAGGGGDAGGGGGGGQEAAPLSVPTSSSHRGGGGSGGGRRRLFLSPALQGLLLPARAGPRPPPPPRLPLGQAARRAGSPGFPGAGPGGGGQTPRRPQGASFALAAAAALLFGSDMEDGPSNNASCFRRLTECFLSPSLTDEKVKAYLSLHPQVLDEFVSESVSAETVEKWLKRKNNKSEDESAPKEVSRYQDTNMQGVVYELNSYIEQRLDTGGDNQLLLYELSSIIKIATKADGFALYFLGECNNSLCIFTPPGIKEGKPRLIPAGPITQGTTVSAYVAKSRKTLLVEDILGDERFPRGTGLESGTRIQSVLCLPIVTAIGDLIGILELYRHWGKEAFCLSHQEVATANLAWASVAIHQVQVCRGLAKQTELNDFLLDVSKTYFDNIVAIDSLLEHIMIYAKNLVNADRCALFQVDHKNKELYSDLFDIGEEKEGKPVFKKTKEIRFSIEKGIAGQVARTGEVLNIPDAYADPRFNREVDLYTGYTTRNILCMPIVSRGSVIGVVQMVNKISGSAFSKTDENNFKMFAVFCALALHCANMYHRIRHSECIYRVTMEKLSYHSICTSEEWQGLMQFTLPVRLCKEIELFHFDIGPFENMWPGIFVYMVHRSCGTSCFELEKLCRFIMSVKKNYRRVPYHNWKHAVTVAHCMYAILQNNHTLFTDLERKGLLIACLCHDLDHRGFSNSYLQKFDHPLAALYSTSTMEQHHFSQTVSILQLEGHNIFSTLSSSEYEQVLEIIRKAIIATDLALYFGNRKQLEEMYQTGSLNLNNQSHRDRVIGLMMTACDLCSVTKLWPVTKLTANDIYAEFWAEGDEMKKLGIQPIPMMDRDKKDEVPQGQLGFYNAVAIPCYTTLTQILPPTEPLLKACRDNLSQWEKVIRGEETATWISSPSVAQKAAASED

microsomal CLint at 0.5 µM [1] [µL/min/mg]	IC50 [2] [nM]	microsomal CLint at 0.5 µM [3] [µL/min/mg]	SMILES
< 100	< 100	< 100	Cn1cc(-c2ccncc2)c(-c2ccc(C#Cc3nccn3C)cc2)n1
< 100	100 to 200	< 100	Cn1cc(-c2ccncc2)c(-c2ccc(C#Cc3nccs3)cc2)n1

Second part, the compound before the results:

SMILES	microsomal CLint at 0.5 µM [1] [µL/min/mg]	IC50 [2] [nM]	microsomal CLint at 0.5 µM [3] [µL/min/mg]
Cn1cc(-c2ccncc2)c(-c2ccc(C#Cc3ccccn3)cc2)n1	< 100	< 100	< 100
Cc1cccc(C#Cc2ccc(-c3nn(C)cc3-c3cn[nH]c3)cc2)n1	< 100	200 to 500	< 100
Cn1cc(-c2ccncc2)c(-c2ccc(C#Cc3ccc4ccccc4n3)cc2)n1	< 100	< 100	< 100
COc1cc(-c2nn(C)cc2-c2ccncc2)ccc1C#Cc1cccc(C)n1	100 to 200	< 100	< 100
